This is an account of results in patent US8507411B2, “Neoglycorandomization and digitoxin analogs” (priority 2004, dated 2013).

One assay has as its system MCF7. Briefly: High-throughput calcein AM cytotoxicity assay, MCF7. The assay is classed as cell-based, human. The note with it: MCF7 cells; read-out: IC50, MCF7. From the text: (§1) Standard errors are depicted with error bars.
Another assay concerns SK-OV-3. Briefly: cells. The note with it: SK-OV-3 cells; read-out: IC50, SK-OV-3. The assay is classed as cell-based, human. The procedure, abridged:
(§2)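 Live-cell esterase read-out: calcein AM added for 30 min at 37° C after 72 h compound exposure and a PBS wash. Dosing used a five-point 1:2 series. IC50 values are variable-slope logistic fits over at least six replicate experiments.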

For a further assay, the system named is NCI/ADR-RES. Briefly: cells. The format is cell-based, human. The note with it: NCI/ADR-RES cells; read-out: IC50, NCI/ADR-RES. The procedure, abridged: as §2
In a further assay the test system is SF-268. Briefly: cells. The assay is classed as cell-based, human. The note with it: SF-268 cells; read-out: IC50, SF-268. A digest of the protocol: as §2
The test system of the next assay is Hep3B. Briefly: High-throughput calcein AM cytotoxicity assay, Hep3B. The assay is classed as cell-based, human. The note with it: Hep 3B cells; read-out: IC50, Hep 3B.
Source text: as §1

The subject of the next assay is Du145. Briefly: High-throughput calcein AM cytotoxicity assay, Du145. The assay is classed as cell-based, human. The note with it: Du145 cells; read-out: IC50, Du145.
Source text: as §1

Another assay relates to A549. Briefly: High-throughput calcein AM cytotoxicity assay, A549. The format is cell-based, human. The note with it: A549 cells; read-out: IC50, A549.
Source text: as §1

The next assay has as its system NmuMG. Briefly: cells. The format is cell-based, mouse. The note with it: NmuMG mouse mammary normal epithelial control line; read-out: IC50, NmuMG. A digest of the protocol:
as §2

Another assay deals with NCI-H460. Briefly: High-throughput calcein AM cytotoxicity assay, NCI-H460. The format is cell-based, human. The note with it: NCI-H460 cells; read-out: IC50, NCI-H460.
Source text: as §1

The next assay has as its system HCT-116. Briefly: High-throughput calcein AM cytotoxicity assay, HCT-116. The format is cell-based, human. The note with it: HCT-116 cells; read-out: IC50, HCT-116.
Source text: as §1

With `CON(C1CCC2(C)C(CCC3C2CCC2(C)C(C4=CC(=O)OC4)CCC32O)C1)C1OC(C(=O)O)C(O)C(O)C1O` [38β, D-galacturonoside], the IC50 was 5 µM in the assay on MCF7; 3100 nM in the assay with SK-OV-3; 1600 nM in the assay on NCI/ADR-RES; 2200 nM in the assay on SF-268; 2100 nM in the assay with Hep3B; 1900 nM in the assay with Du145. Moreover, the IC50 in the assay with A549 is 2200 nM; in the assay on NmuMG, above 25 µM; with NCI-H460 it was 1400 nM; with HCT-116, 2700 nM.
On to `CON([C@H]1CC[C@@]2(C)[C@H](CC[C@@H]3[C@@H]2CC[C@]2(C)[C@@H](C4=CC(=O)OC4)CC[C@]32O)C1)[C@H]1O[C@@H](C)[C@@H](O)[C@@H](O)[C@@H]1O` [7β, L-fucoside], for which the IC50 in the assay with MCF7 was 1.3 µM; in the assay with SK-OV-3 it was 500 nM; with NCI/ADR-RES, 250 nM; in the assay with SF-268 it was 900 nM; in the assay with Hep3B, 350 nM; in the assay with Du145 it was 700 nM. For the same compound, the IC50 in the assay on A549 is 300 nM; in the assay on NmuMG, above 25 µM; with NCI-H460, 600 nM; with HCT-116, 1200 nM.
For 6-keto-D-galactoside [31β], the IC50 was 9 µM in the assay with MCF7; 2900 nM with SK-OV-3; 1000 nM in the assay with NCI/ADR-RES; 8000 nM with SF-268; 3100 nM with Hep3B; 1500 nM in the assay with Du145. The IC50 in the assay on A549 was 2300 nM; in the assay on NmuMG, above 25 µM; in the assay on NCI-H460, 2400 nM; in the assay with HCT-116, 3100 nM.
